Data taken from article PMC8245078, “Development of novel benzofuran-isatin conjugates as potential antiproliferative agents with apoptosis inducing mechanism in Colon cancer” (Journal of Enzyme Inhibition and Medicinal Chemistry, 2021).
Like-named read-outs stand apart in the source and are kept apart here.

How the values were obtained:
HL60(TB) = assay type: cell-based
MOLT-4 = assay type: cell-based; settings: MOLT-4, five-dose test
HOP-62 = assay type: cell-based; settings: HOP-62, five-dose test
COLO 205 = assay type: cell-based; settings: COLO 205, five-dose test
HCT-15 = assay type: cell-based; settings: HCT-15, five-dose test
SW-620 = assay type: cell-based; settings: SW-620, five-dose test
SF-295 = assay type: cell-based, human; settings: SF-295, five-dose test
SNB-19 = assay type: cell-based; settings: SNB-19, five-dose test
OVCAR-3 = assay type: cell-based; settings: Homo sapiens; OVCAR-3, five-dose test
[1] = test system: non-small cell lung cancer subpanel; assay type: cell-based, human
Colon Cancer subpanel = assay type: cell-based, human
Renal Cancer subpanel = assay type: cell-based, human
[2] = test system: Full panel of NCI cancer cell lines; assay type: cell-based
[3] = Homo sapiens, read-out: LC50 (the source's name)

## COc1ccc2c(c1)/C(=N/NC(=O)c1oc3ccccc3c1C)C(=O)N2 [Compound 5d]
HL60(TB); Homo sapiens, HL-60, five-dose test
  GI50: > 100 µM
HL60(TB); Homo sapiens, HL-60, five-dose test, read-out: LC50 (the source's name)
  CC50: > 100 µM
HL60(TB); five-dose test
  TGI: >100 µM
MOLT-4; Homo sapiens
  LC50: > 100 µM
MOLT-4
  TGI: >100 µM
HOP-62
  TGI: 4.02 µM
HOP-62; Homo sapiens
  GI50: 1.92 µM
HOP-62; [3]
  CC50: 8.44 µM
COLO 205
  TGI: >100 µM
COLO 205; Homo sapiens
  LC50 (concentration killing 50% of cells): > 100 µM
HCT-15
  TGI: >100 µM
HCT-15; Homo sapiens
  LC50: > 100 µM
SW-620; [3]
  CC50: > 100 µM
SW-620
  TGI: >100 µM
SF-295; Homo sapiens
  GI50: 2.03 µM
SF-295
  TGI: 4.13 µM
SNB-19; Homo sapiens
  GI50: 3.45 µM
SNB-19; [3]
  CC50: > 100 µM
SNB-19
  TGI: 16.2 µM
OVCAR-3
  GI50: 1.84 µM
[1]; Homo sapiens, non-small cell lung cancer subpanel, read-out: MG-MID (GI50 average of the subpanel)
  GI50: 2.8 µM
[1]; full panel MID / subpanel MID, non-small cell lung cancer
  Selectivity index: 0.89
Colon Cancer subpanel; Homo sapiens, Colon Cancer subpanel, read-out: MG-MID (GI50 average of the subpanel)
  GI50: 1.92 µM
Colon Cancer subpanel; full panel MID / subpanel MID, Colon Cancer
  Selectivity index: 1.30
Renal Cancer subpanel; Homo sapiens, Renal Cancer subpanel, read-out: MG-MID (GI50 average of the subpanel)
  GI50: 1.98 µM
Renal Cancer subpanel; full panel MID / subpanel MID, Renal Cancer
  Selectivity index: 1.26
[2]; Homo sapiens, all cancer cell lines examined except HOP-62, SNB-75 and SK-MEL-2
  LC50: > 100 µM
[2]; Homo sapiens, all examined cancer cell subpanels except HL60(TB), read-out: GI50 values range
  GI50: 1.25 to 6.07 µM
[2]; Homo sapiens, average sensitivity for all cell lines, read-out: Full panel MG-MID (GI50)
  GI50: 2.51 µM
[2]; all tested subpanels
  selectivity index range over subpanels: 0.78 to 1.30
[2]; entire Leukaemia, Colon cancer and Prostate Cancer and the remaining examined cancer cell lines
  TGI: more than 100 µM
MDA-MB-468; Homo sapiens, MDA-MB-468
  GI50: 2.6 µM
MDA-MB-468; Homo sapiens, MDA-MB-468, read-out: LC50
  CC50: > 100 µM
MDA-MB-468; MDA-MB-468, five-dose test
  TGI: 6.52 µM
